The source made the active and inactive calls.
Tests used:
HEK293 [1] = assay: cells; format: functional, cell-based; conditions: Homo sapiens
[2] = molecular target: Nucleotide-binding oligomerization domain-containing protein 2 (Homo sapiens, UniProt Q9HC29); assay: PubChem AID 2334; format: functional
HEK293 [3] = assay: cells; conditions: Homo sapiens
HEK293 [4] = assay: NOD2 signaling inhibitors in MDP-stimulated cells, cell-based, uHTS, luminescence (AID 2001); format: functional; conditions: Homo sapiens
HEK293 [5] = assay: cells; format: functional, cell-based; conditions: Homo sapiens; remark: listed apart in the source
[6] = molecular target: T1, Nucleotide-binding oligomerization domain-containing protein 1 (Homo sapiens, UniProt Q9Y239); assay: blockers of NOD1 pathway activity – revised, SAR follow-up (AID 2333); format: functional
T1 sequence (Q9Y239 whole entry): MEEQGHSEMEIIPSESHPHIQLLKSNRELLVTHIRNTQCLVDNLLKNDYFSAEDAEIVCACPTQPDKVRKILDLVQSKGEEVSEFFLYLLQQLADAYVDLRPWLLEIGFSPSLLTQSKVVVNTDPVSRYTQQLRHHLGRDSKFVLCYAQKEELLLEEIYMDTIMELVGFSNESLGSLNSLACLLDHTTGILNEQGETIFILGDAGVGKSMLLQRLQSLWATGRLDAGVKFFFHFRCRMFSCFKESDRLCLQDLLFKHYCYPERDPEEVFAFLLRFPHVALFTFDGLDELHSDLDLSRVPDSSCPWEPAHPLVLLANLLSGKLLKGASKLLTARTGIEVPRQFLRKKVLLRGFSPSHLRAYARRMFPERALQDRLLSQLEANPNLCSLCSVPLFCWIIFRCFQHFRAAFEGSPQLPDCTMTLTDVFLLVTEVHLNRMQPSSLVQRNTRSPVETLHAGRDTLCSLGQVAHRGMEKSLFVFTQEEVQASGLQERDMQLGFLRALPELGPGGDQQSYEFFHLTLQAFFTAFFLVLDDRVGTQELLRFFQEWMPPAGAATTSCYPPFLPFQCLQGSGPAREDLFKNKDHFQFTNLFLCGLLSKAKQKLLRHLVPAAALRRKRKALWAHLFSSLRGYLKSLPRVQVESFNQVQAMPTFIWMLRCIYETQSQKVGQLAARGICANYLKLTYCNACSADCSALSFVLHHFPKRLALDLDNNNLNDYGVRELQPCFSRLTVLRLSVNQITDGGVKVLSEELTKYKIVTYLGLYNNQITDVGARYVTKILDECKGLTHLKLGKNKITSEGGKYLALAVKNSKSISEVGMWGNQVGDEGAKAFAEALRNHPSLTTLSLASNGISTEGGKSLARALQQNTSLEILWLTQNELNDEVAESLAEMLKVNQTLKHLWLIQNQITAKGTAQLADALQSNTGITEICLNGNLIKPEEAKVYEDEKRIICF

Tumor necrosis factor = Tumor necrosis factor (Homo sapiens, UniProt P01375); assay: analog potency on TNFa NF-kB signaling – cell-based, revised, SAR follow-up (AID 2337); format: functional
Sequence of Tumor necrosis factor (P01375 whole entry): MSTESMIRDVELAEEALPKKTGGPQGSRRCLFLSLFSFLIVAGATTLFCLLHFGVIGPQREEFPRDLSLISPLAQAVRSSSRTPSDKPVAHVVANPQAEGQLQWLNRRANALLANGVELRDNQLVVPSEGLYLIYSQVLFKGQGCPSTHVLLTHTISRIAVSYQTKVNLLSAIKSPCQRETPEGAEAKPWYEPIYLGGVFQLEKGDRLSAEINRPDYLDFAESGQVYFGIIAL

HEK293 [7] = assay: inhibition of NOD1-driven NF-kB reporter – cell-based, luminescence, uHTS, primary screen (AID 1578); format: functional; conditions: Homo sapiens
[8] = HEK-293T viability loss after treatment – luminescence, T-cell screen hits, cytotoxicity control for TCR NF-kB inhibitor project, dose response (AID 489026); format: functional, cell-based;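 further: cells exposed to compound about 14 hours before the viability readout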
[9] = HPDE-C7 pancreatic duct cell viability loss – fluorescence, HTS (AID 430); format: functional, cell-based; conditions: Homo sapiens
[10] = luciferase reporter signal suppression in cells – H4 neuroglioma cells, luminescence, dose response (AID 1990); format: functional, cell-based
[11] = IC50 of Artemis nuclease activity blockers – biochemical, fluorescence intensity, dose response (AID 720701); format: functional;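 further: Artemis endonuclease enzyme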
[12] = alpha-synuclein stem-loop translation blockers – luminescence, H4 neuroglioblastoma cells, dose confirmation, confirmation (AID 2454); format: functional, cell-based;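 further: H4 neuroglioblastoma cells carrying an alpha-synuclein 5'UTR luciferase reporter; potency for inhibition of the luciferase signal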
[13] = alpha-synuclein stem-loop luciferase translation blockers – H4 neuroglioma cells, luminescence, confirmation (AID 1988); format: functional, cell-based
[14] = viability loss of HPDE-C7K cells – cell-based, fluorescence, HTS, primary screen (AID 431); format: functional; conditions: Homo sapiens
[15] = luciferase reporter signal reduction – luminescence, H4-C neuroglioblastoma cells, dose response (AID 2458); format: functional, cell-based;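 further: H4 neuroglioblastoma cells stably carrying a luciferase reporter gene fusion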
J774.A1 = assay: Confirmation of image-based Screening Assay for Inhibitors of Phagocytosis. [Related pubchem assays (depositor defined):AID1029, AID1643]; format: functional, cell-based; conditions: Mus musculus
[16] = Luminescence Cell-Based Dose Response HTS to Identify Inhibitors of 5'UTR Stem-Loop Driven Prion Protein mRNA Translation in H4 Neuroglioblastoma Cells. [Related pubchem assays: 1827 (Project Summary), 1813 (Primary HTS)]; format: functional
cells = format: functional, cell-based
[17] = molecular target: T2, Voltage-dependent T-type calcium channel subunit alpha-1H (Homo sapiens, UniProt O95180); assay: Inhibitors of T-Type Calcium Channels. [Related pubchem assays (depositor defined):AID449739, AID463087, AID489005, AID493041, AID504579, AID504584, AID504619, AID504628]; format: functional
T2 sequence (O95180 whole entry): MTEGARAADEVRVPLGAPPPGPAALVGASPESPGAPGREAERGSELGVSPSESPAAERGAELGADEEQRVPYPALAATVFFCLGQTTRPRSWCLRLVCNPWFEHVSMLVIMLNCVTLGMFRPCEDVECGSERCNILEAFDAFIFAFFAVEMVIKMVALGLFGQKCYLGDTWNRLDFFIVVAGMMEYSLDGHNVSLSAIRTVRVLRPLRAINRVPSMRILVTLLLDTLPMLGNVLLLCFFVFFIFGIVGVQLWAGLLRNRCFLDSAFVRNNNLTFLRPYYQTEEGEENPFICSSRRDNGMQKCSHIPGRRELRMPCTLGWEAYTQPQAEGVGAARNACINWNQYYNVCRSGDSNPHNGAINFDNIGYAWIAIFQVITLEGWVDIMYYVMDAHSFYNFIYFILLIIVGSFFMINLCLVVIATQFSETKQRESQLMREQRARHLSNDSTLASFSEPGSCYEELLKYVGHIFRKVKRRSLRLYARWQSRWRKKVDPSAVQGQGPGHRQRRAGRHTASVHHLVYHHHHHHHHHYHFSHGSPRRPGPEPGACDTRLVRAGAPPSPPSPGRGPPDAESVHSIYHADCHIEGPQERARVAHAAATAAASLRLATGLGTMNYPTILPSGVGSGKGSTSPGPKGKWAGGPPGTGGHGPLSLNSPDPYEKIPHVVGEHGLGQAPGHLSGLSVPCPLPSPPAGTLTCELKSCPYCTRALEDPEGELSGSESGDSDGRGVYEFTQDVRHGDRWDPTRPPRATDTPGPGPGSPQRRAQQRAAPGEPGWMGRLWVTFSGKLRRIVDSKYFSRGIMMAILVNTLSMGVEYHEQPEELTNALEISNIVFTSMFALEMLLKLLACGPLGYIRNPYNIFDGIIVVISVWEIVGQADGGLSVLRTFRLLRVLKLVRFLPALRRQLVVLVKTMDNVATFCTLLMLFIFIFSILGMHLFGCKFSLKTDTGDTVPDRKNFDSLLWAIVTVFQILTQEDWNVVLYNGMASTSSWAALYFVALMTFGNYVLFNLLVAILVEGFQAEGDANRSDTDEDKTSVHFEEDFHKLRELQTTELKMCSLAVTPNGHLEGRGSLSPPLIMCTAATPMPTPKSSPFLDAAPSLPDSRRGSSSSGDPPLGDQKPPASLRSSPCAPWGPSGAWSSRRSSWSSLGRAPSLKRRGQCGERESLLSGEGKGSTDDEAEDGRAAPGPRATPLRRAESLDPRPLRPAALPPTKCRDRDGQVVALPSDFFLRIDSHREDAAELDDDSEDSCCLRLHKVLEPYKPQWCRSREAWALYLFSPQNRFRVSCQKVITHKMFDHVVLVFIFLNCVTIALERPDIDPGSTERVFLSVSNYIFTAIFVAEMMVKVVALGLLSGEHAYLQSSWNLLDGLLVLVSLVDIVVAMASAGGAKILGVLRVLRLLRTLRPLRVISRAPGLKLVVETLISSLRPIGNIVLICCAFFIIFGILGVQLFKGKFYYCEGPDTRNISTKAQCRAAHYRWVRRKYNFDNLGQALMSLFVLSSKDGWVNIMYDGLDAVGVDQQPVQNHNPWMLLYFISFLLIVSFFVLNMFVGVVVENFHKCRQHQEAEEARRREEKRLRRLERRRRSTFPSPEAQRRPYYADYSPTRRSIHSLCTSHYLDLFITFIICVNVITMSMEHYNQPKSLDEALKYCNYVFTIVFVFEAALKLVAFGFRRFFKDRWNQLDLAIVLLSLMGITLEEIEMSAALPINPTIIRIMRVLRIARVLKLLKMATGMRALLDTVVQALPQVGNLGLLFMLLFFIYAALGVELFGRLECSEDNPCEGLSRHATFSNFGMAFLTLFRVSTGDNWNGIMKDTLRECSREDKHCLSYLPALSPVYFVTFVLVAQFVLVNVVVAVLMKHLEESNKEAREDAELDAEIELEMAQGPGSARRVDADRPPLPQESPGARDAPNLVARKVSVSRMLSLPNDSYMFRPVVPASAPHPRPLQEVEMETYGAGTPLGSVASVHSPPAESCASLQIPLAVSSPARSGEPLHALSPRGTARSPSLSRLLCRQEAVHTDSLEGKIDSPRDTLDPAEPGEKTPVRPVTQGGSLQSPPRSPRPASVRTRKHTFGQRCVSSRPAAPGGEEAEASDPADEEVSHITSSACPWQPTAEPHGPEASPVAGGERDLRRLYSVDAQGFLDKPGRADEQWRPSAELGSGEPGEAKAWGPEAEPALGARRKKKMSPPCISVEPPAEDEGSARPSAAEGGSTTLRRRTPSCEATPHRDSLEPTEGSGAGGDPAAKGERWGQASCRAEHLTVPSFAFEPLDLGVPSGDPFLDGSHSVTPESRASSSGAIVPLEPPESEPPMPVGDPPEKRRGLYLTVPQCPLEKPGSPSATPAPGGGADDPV

[18] = molecular target: T2, Voltage-dependent T-type calcium channel subunit alpha-1H; format: functional
Large T antigen = Large T antigen (Simian virus 40, UniProt P03070); format: functional, Betapolyomavirus macacae;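 further: Confirmatory-stage PubChem screen for compounds that inhibit SV40 T antigen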
[19] = protection from phage-mediated lysis, alamar blue read-out – E. coli UTI89, K1F phage, bacterial capsule biogenesis inhibitors (AID 488966); format: functional
[20] = molecular target: T3, Dual specificity protein phosphatase 6 (Rattus norvegicus, UniProt Q64346); assay: inhibition of rat DUSP6 enzyme activity – biochemical, in vitro, primary screen (AID 425)
T3 sequence (Q64346 whole entry): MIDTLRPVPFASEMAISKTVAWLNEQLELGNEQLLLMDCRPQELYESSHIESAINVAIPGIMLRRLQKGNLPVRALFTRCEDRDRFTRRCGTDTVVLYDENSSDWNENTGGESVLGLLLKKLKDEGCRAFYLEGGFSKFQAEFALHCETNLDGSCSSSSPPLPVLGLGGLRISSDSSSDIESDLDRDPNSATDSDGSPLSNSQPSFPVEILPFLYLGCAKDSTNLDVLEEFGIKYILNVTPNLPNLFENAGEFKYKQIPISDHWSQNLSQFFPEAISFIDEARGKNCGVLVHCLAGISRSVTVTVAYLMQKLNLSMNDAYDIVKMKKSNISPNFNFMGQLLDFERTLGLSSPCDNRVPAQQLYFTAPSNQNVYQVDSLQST

Bcl-2-like protein 10 = Bcl-2-like protein 10 (Homo sapiens, UniProt Q9HD36); assay: Bcl-B/TR3 peptide binding disruption – biochemical, fluorescence polarization, FITC-TR3 peptide, selectivity assay for Bfl-1 inhibitor project, primary screen (AID 748);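 further: fluorescence polarization from a fluorescein-labelled TR3 peptide binding purified Bcl-B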
Sequence of Bcl-2-like protein 10 (Q9HD36 whole entry): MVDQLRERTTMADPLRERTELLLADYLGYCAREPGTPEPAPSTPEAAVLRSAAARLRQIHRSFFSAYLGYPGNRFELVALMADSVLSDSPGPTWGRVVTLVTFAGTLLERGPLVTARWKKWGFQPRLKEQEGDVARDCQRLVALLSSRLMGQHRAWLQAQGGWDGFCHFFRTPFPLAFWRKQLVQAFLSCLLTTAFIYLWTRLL

Estrogen receptor = molecular target: T4, Estrogen receptor (Homo sapiens, UniProt P03372);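 further: potency for inhibiting coactivator peptide recruitment to the receptor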
T4 sequence (P03372 whole entry): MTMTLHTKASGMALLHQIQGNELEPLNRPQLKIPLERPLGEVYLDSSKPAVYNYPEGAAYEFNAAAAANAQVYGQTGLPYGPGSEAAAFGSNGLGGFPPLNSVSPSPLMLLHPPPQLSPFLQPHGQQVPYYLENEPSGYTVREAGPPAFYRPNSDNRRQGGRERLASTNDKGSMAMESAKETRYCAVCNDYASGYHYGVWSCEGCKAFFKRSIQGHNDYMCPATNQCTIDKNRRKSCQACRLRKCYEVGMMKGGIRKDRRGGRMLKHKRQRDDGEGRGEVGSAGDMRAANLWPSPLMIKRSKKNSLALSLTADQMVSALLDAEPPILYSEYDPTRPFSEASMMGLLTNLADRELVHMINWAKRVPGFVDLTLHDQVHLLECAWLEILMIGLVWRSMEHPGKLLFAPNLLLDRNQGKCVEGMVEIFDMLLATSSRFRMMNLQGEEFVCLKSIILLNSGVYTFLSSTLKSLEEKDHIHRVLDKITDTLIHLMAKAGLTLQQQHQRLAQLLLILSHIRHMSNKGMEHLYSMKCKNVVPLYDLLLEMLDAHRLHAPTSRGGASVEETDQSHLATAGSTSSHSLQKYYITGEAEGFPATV

Estrogen receptor beta [21] = molecular target: T5, Estrogen receptor beta (Homo sapiens, UniProt Q92731); assay: blockers of SRC-3 recruitment to ERβ – biochemical, ELISA, streptavidin-HRP readout, orthogonal assay, confirmation (AID 1060)
T5 sequence (Q92731 whole entry): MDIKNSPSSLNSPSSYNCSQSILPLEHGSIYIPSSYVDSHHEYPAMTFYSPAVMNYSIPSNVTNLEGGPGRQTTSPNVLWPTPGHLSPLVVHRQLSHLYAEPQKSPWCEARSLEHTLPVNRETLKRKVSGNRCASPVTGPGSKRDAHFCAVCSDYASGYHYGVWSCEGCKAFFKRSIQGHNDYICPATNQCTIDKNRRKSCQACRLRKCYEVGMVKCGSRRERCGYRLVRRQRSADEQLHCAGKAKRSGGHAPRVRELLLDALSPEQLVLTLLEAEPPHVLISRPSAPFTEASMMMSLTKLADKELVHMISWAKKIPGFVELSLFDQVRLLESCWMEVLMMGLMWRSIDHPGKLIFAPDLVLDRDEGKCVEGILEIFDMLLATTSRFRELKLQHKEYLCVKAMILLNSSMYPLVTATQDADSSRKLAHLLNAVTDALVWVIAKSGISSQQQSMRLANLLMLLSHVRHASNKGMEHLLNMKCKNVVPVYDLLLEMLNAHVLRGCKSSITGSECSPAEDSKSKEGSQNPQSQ

[22] = molecular target: T3, Dual specificity protein phosphatase 6
[23] = molecular target: T3, Dual specificity protein phosphatase 6; format: functional
[24] = molecular target: Induced myeloid leukemia cell differentiation protein Mcl-1 (Homo sapiens, UniProt Q07820); format: functional
Sequence of Induced myeloid leukemia cell differentiation protein Mcl-1 (Q07820 whole entry): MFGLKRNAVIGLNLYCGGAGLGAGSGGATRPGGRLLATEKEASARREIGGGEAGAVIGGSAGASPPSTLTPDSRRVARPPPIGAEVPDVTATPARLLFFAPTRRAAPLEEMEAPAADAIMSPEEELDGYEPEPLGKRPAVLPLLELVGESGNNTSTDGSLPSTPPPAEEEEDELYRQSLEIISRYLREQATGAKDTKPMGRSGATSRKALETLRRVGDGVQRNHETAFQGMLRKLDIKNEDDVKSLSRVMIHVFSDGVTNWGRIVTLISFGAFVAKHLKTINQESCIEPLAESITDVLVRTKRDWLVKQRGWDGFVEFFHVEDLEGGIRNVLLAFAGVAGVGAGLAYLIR

[25] = molecular target: Glyceraldehyde-3-phosphate dehydrogenase (Homo sapiens, UniProt P04406)
Sequence of Glyceraldehyde-3-phosphate dehydrogenase (P04406 whole entry): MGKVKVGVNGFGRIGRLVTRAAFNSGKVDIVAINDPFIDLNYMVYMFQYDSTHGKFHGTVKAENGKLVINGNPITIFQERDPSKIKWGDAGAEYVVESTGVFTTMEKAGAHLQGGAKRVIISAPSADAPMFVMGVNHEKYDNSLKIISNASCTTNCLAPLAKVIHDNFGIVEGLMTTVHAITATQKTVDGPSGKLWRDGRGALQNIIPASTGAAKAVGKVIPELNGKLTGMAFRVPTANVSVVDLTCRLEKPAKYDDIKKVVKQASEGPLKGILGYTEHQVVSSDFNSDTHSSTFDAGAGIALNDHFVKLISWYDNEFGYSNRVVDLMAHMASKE

Ephrin type-A receptor 4 = Ephrin type-A receptor 4 (Mus musculus, UniProt Q03137); assay: EphA4 ligand-binding antagonists – biochemical, colorimetric, mouse EphA4, primary screen (AID 689); format: functional
Estrogen receptor beta [26] = molecular target: T5, Estrogen receptor beta
[27] = molecular target: T6, Tyrosine-protein phosphatase non-receptor type 7 (Homo sapiens, UniProt P35236); format: functional
T6 sequence (P35236 whole entry): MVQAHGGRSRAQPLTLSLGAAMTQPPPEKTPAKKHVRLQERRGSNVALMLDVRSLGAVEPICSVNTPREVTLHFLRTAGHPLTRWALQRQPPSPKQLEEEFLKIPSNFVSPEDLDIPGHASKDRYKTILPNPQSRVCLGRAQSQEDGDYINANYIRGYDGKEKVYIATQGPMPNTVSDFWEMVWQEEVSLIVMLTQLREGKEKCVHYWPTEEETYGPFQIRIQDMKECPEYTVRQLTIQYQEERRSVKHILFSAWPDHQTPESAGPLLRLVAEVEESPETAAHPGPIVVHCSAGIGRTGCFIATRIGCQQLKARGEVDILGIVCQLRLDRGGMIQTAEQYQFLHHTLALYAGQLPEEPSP

Sequence of Nucleotide-binding oligomerization domain-containing protein 2 (Q9HC29 whole entry, the tested form may be a part): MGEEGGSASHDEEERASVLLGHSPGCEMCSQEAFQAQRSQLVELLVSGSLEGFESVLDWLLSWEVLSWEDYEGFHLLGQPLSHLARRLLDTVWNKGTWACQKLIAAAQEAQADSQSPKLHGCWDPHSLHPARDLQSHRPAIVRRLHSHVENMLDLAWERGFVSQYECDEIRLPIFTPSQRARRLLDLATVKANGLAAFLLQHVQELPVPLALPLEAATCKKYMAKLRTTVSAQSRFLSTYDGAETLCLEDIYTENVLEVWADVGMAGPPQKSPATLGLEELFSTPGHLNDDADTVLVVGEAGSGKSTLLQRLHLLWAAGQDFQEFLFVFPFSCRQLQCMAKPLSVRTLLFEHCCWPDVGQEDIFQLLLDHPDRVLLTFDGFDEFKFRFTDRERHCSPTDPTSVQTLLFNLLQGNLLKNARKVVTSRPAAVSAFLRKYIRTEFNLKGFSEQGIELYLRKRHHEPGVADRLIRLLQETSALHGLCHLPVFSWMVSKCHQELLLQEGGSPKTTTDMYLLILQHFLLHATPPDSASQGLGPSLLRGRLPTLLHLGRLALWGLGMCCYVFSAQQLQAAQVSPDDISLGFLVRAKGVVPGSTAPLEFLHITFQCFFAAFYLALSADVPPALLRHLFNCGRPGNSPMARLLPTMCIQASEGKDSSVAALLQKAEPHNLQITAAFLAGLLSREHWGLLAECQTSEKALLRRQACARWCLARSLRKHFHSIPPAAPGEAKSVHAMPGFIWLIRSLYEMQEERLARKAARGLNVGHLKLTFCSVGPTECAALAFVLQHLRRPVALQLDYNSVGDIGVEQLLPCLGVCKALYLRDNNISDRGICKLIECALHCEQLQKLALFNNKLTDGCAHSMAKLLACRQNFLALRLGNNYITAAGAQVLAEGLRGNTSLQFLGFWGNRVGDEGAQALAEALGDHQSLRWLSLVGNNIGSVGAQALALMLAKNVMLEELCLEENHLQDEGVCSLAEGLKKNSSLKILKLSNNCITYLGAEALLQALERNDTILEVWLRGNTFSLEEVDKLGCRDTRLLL

CC1CCc2c(sc(NC(=O)c3cccs3)c2C(=O)O)C1 (centres undefined)
inactive: IC50 (HEK293 [1]) > 20 µM | IC50 [2] > 20 µM | IC50 (HEK293 [3]) > 20 µM | IC50 (HEK293 [4]) > 20 µM | IC50 (HEK293 [5]) > 20 µM | IC50 [6] > 20 µM | IC50 (Tumor necrosis factor) > 20 µM | EC50 (HEK293 [7]) > 20 µM

CCN(CC)c1ccc(-c2nn3c(-c4[nH]nc5c4CCC5)nnc3s2)cc1
active: EC50 [9] 0.75 µM | EC50 [10] 0.294 µM | EC50 [12] 0.972 µM | EC50 [13] < 0.1 µM | EC50 [14] 1.06 µM | EC50 [15] 1.21 µM | IC50 (J774.A1) 0.667 µM | EC50 [16] 0.377 µM | EC50 (cells) 0.859 µM
inactive: IC50 [8] 61.1 µM | IC50 [11] > 20 µM

O=C(Nc1ccccc1)c1ccccc1NS(=O)(=O)c1ccc(Cl)s1
active: EC50 [17] 0.808 µM | EC50 [18] 1.05 µM

COc1ccc(NC2SC(=O)N(C)C2=O)cc1 (centres undefined)
active: IC50 (Large T antigen) 80.8 µM | IC50 [19] > 300 µM

COc1ccc(N2Cc3cccc(C(=O)O)c3C2=O)cc1
> 100 µM (not active): IC50 [25] | IC50 [27]
inactive: IC50 [22] > 100 µM | IC50 [23] > 100 µM
active: IC50 (Bcl-2-like protein 10) 4.06 µM | IC50 (Estrogen receptor) 12 µM | IC50 [24] 4.43 µM | IC50 (Ephrin type-A receptor 4) 9.05 µM | IC50 (Estrogen receptor beta [26]) 2.15 µM
0.704 µM (not active): IC50 (Estrogen receptor beta [21])
> 10 µM (not active): IC50 [20]

Source: ChEMBL document CHEMBL1201862, “PubChem BioAssay data set” (2004)
